Results reported in US7074789B2, “Kinase inhibitors” (Amgen Inc., priority 1999, dated 2006).
Read-outs that look alike come from different tables or passages of the source.

Columns and labels:
Format in all cases: biochemical
Lyn = molecular target: T1, Lyn (Homo sapiens, UniProt P07948); test: Kinase inhibition assay (33P transfer), Lyn; settings: Table 6, Lyn-1 kinase inhibition class
T1 construct: Kinases are expressed as either kinase domains or full length constructs; made in house
In short: (§1)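 Steps: coat wells with poly(Glu,Tyr) 4:1 or poly(Arg,Ser) 3:1; add purified kinase, [33P]ATP and inhibitor; incubate; wash with 0.5% phosphoric acid; add liquid scintillant; count. IC50 corresponds to half-maximal reduction of bound 33P.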

EGFR = molecular target: T2, EGFR (Homo sapiens, UniProt P00533); test: Kinase inhibition assay (33P transfer), EGFR; settings: Table 2, kinase inhibition class; read-out: EGFR-1
T2 construct: Kinases are expressed as either kinase domains or full length constructs; made in house
T2 sequence (P00533 25-1210, species assumed): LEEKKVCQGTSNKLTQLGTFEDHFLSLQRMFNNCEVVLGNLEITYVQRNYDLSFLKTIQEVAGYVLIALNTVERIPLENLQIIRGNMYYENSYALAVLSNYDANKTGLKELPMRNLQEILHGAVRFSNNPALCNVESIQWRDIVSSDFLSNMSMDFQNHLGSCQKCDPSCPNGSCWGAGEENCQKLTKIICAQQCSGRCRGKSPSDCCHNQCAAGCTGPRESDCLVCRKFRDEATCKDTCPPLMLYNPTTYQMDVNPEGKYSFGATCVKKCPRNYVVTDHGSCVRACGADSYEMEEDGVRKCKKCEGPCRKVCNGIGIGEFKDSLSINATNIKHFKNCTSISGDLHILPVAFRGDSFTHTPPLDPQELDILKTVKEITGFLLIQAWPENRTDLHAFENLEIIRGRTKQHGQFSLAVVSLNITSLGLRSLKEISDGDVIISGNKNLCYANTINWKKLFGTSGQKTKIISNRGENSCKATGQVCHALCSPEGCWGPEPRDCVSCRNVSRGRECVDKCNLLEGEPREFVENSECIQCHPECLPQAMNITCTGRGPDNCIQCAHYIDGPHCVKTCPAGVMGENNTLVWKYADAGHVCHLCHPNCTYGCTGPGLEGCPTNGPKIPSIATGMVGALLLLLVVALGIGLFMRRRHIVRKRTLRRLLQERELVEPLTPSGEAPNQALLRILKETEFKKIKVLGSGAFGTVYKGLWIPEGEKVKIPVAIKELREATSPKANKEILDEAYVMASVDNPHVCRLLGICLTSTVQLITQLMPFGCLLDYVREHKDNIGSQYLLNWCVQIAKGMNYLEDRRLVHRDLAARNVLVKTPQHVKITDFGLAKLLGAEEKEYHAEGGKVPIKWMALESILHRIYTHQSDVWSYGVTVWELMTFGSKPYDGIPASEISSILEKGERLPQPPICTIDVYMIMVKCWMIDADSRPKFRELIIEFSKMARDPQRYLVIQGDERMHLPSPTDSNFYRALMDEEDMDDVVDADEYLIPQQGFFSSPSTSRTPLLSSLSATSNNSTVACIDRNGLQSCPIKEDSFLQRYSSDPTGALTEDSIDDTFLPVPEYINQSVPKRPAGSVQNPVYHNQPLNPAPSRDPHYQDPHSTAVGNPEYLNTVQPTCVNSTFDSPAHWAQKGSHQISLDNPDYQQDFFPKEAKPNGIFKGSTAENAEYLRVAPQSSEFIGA
In short: as §1

c-Met = molecular target: T3, c-Met (Homo sapiens, UniProt P08581); test: Kinase inhibition assay (33P transfer), c-Met; settings: Table 2, kinase inhibition class; read-out: Met-1
T3 construct: Kinases are expressed as either kinase domains or full length constructs; made in house
In short: as §1

Flt-1 = molecular target: T4, Flt-1 (Homo sapiens, UniProt P17948); test: Kinase inhibition assay (33P transfer), Flt-1
T4 construct: Kinases are expressed as either kinase domains or full length constructs; made in house
In short: as §1

FGFR1 = molecular target: T5, FGFR1 (Homo sapiens, UniProt P11362); test: Kinase inhibition assay (33P transfer), FGFR1; settings: read-out: FGFR1-1
T5 construct: Kinases are expressed as either kinase domains or full length constructs; made in house

Hck-1 = molecular target: T6, Hck-1 (Homo sapiens, UniProt P08631); test: Kinase inhibition assay (33P transfer), Hck; settings: Table 6, Hck-1 kinase inhibition class
T6 construct: Kinases are expressed as either kinase domains or full length constructs; made in house

Fyn = molecular target: T7, Fyn (Homo sapiens, UniProt P06241); test: Kinase inhibition assay (33P transfer), Fyn; settings: read-out: Fyn-1
T7 construct: Kinases are expressed as either kinase domains or full length constructs; made in house
In short: as §1

ErbB4 = molecular target: T8, ErbB4 (Homo sapiens, UniProt Q15303); test: Kinase inhibition assay (33P transfer), ErbB4; settings: read-out: ErbB4-1
T8 construct: Kinases are expressed as either kinase domains or full length constructs; made in house

Lck = molecular target: T9, Lck (Homo sapiens, UniProt P06239); test: Kinase inhibition assay (33P transfer), Lck; settings: read-out: Lck-1
T9 construct: Kinases are expressed as either kinase domains or full length constructs; made in house
T9 sequence (P06239 whole entry, species assumed, the tested form may be a part): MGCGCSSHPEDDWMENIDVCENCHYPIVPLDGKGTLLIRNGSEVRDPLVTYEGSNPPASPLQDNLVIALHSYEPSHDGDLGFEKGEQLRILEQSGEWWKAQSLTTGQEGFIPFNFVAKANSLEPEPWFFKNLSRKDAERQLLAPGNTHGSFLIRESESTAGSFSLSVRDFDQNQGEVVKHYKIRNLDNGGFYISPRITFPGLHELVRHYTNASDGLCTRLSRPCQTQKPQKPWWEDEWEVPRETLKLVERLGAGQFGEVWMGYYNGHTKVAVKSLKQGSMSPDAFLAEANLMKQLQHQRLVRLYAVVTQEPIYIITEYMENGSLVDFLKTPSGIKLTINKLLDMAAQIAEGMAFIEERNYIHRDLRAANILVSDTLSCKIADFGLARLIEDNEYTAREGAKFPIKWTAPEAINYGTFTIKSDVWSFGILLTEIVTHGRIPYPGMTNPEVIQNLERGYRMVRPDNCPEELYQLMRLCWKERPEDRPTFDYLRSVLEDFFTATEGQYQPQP
In short: (§2)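 Each kinase, expressed as a GST- or polyHis-tagged domain or full-length protein, phosphorylated plate-attached poly(Glu,Tyr) 4:1 or poly(Arg,Ser) 3:1 using 33P-ATP. Bound radioactivity was measured by scintillation after a 0.5% phosphoric acid wash.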

AKT = molecular target: T10, AKT (Homo sapiens, UniProt Q9Y243); test: Kinase inhibition assay (33P transfer), AKT; settings: Table 2, kinase inhibition class; read-out: AKT3-1
T10 construct: Kinases are expressed as either kinase domains or full length constructs; made in house
T10 sequence (Q9Y243 whole entry, the tested form may be a part): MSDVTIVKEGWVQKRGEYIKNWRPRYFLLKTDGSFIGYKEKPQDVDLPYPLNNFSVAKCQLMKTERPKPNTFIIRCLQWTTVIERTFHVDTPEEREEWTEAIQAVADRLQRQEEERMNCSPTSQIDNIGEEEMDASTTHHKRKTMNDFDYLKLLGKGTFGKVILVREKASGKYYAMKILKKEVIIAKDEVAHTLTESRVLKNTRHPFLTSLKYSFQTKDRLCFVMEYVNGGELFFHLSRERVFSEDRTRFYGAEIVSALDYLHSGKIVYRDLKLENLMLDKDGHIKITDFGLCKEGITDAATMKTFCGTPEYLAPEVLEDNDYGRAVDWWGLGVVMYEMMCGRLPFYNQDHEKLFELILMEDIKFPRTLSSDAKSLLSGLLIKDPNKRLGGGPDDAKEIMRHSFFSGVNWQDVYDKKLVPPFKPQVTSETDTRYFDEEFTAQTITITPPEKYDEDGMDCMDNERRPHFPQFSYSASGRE
In short: as §2

Itk = molecular target: T11, Itk (Homo sapiens, UniProt Q08881); test: Kinase inhibition assay (33P transfer), Itk; settings: read-out: Itk-1
T11 construct: Kinases are expressed as either kinase domains or full length constructs; made in house
T11 sequence (Q08881 1-620): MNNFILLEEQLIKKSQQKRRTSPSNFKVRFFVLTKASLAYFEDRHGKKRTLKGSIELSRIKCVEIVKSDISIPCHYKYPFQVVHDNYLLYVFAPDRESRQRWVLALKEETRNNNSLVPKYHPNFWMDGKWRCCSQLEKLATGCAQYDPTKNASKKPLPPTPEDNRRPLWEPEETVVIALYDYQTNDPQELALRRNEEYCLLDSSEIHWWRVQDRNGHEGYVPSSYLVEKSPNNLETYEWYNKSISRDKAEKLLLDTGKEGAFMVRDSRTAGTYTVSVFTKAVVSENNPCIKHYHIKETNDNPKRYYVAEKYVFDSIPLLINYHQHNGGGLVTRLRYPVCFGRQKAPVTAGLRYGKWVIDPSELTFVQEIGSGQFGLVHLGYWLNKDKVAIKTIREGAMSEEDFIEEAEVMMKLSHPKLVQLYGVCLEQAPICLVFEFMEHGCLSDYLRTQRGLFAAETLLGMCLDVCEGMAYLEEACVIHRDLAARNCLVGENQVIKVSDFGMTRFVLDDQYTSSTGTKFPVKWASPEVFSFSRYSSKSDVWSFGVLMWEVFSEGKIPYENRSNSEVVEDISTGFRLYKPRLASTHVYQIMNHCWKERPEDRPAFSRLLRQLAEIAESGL
In short: as §1

ErbB2 = molecular target: T12, ErbB2 (Homo sapiens, UniProt P04626); test: Kinase inhibition assay (33P transfer), ErbB2; settings: read-out: ErbB2-2
T12 construct: Kinases are expressed as either kinase domains or full length constructs; made in house
In short: as §1

Tek = molecular target: T13, Tek (Homo sapiens, UniProt Q02763); test: Kinase inhibition assay (33P transfer), Tek; settings: read-out: Tek-1
T13 construct: Kinases are expressed as either kinase domains or full length constructs; made in house
In short: as §1

Src = molecular target: T14, Src (Homo sapiens, UniProt P12931); test: Kinase inhibition assay (33P transfer), Src; settings: Table 6, Src-1 kinase inhibition class
T14 construct: Kinases are expressed as either kinase domains or full length constructs; made in house
In short: as §1

Kdr = molecular target: T15, Kdr (Homo sapiens, UniProt P35968); test: Kinase inhibition assay (33P transfer), Kdr; settings: read-out: KDR-1
T15 construct: Kinases are expressed as either kinase domains or full length constructs; made in house
T15 sequence (P35968 20-1356, species assumed): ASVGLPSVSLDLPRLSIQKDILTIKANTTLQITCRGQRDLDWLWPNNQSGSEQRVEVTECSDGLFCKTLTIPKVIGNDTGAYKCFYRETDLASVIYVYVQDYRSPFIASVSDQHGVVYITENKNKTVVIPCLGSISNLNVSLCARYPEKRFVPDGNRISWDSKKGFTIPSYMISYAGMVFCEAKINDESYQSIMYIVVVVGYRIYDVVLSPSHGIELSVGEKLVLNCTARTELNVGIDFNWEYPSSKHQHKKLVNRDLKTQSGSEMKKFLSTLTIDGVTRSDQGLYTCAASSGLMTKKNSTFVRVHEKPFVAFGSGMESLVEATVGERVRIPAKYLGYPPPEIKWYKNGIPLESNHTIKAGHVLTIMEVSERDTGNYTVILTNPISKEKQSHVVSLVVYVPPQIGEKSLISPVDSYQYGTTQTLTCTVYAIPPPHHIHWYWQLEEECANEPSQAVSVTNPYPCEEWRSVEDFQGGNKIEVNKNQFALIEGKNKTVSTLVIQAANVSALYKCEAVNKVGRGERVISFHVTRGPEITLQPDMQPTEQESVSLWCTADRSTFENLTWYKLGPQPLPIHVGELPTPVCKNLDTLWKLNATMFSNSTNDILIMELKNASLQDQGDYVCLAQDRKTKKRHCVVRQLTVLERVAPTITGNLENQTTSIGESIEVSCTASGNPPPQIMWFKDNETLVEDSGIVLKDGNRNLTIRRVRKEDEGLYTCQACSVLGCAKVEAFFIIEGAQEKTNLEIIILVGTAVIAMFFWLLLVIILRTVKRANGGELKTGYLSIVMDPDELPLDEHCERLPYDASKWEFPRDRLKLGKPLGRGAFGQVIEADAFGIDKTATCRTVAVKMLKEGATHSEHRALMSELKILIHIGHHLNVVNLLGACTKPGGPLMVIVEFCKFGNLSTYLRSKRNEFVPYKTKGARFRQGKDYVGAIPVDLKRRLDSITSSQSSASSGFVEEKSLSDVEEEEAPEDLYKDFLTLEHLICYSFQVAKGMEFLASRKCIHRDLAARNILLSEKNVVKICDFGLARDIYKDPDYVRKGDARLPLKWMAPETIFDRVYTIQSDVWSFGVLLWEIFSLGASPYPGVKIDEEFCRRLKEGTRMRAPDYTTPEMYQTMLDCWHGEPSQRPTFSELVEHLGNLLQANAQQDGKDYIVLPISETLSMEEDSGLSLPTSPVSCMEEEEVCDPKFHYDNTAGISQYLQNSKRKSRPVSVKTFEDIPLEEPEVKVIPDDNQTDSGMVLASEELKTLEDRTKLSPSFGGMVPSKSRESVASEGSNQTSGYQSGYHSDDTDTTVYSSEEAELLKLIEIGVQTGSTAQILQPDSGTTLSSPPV
In short: as §2

PDGFRB [1] = molecular target: T16, PDGFRB (Homo sapiens, UniProt P09619); test: Kinase inhibition assay (33P transfer), PDGFRB; settings: read-out: PDGFRB-1
T16 construct: Kinases are expressed as either kinase domains or full length constructs; made in house
T16 sequence (P09619 33-1106, species assumed): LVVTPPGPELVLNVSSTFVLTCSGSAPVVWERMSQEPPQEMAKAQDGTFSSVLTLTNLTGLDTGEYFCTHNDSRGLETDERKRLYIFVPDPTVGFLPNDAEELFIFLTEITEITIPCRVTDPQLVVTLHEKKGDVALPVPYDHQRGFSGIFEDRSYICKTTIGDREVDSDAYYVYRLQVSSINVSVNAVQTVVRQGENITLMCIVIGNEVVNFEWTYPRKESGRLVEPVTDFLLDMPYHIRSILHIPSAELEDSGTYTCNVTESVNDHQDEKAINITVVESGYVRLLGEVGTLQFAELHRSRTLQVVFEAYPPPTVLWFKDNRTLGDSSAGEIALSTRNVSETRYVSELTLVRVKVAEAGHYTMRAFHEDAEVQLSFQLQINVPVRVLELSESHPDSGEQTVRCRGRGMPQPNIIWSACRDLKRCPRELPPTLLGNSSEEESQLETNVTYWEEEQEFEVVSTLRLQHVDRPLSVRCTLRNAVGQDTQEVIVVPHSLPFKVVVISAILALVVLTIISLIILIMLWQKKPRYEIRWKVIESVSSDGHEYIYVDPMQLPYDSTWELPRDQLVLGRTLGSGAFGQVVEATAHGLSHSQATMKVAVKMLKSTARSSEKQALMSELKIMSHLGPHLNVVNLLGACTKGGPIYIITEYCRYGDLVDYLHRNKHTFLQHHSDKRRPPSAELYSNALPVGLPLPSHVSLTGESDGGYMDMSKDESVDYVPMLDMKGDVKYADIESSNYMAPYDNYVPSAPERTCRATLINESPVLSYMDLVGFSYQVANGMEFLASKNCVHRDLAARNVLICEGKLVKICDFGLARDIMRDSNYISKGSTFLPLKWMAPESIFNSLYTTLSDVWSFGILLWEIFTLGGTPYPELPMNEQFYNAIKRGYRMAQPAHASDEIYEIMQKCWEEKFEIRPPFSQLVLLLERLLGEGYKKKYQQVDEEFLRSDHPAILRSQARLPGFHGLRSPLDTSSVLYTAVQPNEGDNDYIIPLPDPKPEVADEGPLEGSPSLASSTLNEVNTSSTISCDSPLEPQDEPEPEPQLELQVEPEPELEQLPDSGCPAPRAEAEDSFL

IGFR-1 [2] = molecular target: T17, IGFR-1 (Homo sapiens, UniProt P08069); test: Kinase inhibition assay (33P transfer), IGFR-1; settings: Table 2, kinase inhibition class
T17 construct: Kinases are expressed as either kinase domains or full length constructs; made in house

Zap-70 = molecular target: T18, Zap-70 (Homo sapiens, UniProt P43403); test: Kinase inhibition assay (33P transfer), Zap-70; settings: read-out: Zap-1
T18 construct: Kinases are expressed as either kinase domains or full length constructs; made in house
T18 sequence (P43403 1-619): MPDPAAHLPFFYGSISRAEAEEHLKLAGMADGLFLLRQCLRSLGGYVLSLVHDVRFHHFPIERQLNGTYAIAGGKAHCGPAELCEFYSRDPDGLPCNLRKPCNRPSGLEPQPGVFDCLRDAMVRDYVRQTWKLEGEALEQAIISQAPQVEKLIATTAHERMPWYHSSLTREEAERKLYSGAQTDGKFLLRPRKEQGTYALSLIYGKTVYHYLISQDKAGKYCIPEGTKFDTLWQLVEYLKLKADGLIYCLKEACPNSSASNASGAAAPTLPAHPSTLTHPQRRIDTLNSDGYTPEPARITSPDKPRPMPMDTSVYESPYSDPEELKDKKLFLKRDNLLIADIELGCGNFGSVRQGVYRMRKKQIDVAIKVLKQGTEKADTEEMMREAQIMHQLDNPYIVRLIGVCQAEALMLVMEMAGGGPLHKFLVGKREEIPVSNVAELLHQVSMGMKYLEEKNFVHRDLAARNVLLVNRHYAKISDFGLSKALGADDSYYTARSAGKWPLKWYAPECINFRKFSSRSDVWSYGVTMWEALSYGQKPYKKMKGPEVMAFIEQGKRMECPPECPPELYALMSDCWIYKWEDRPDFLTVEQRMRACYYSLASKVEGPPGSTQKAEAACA
In short: as §2

EPHB4 = molecular target: T19, EPHB4 (Homo sapiens, UniProt P54760); test: Kinase inhibition assay (33P transfer), EPHB4; settings: read-out: EPHB4-1
T19 construct: Kinases are expressed as either kinase domains or full length constructs; made in house
T19 sequence (P54760 16-987): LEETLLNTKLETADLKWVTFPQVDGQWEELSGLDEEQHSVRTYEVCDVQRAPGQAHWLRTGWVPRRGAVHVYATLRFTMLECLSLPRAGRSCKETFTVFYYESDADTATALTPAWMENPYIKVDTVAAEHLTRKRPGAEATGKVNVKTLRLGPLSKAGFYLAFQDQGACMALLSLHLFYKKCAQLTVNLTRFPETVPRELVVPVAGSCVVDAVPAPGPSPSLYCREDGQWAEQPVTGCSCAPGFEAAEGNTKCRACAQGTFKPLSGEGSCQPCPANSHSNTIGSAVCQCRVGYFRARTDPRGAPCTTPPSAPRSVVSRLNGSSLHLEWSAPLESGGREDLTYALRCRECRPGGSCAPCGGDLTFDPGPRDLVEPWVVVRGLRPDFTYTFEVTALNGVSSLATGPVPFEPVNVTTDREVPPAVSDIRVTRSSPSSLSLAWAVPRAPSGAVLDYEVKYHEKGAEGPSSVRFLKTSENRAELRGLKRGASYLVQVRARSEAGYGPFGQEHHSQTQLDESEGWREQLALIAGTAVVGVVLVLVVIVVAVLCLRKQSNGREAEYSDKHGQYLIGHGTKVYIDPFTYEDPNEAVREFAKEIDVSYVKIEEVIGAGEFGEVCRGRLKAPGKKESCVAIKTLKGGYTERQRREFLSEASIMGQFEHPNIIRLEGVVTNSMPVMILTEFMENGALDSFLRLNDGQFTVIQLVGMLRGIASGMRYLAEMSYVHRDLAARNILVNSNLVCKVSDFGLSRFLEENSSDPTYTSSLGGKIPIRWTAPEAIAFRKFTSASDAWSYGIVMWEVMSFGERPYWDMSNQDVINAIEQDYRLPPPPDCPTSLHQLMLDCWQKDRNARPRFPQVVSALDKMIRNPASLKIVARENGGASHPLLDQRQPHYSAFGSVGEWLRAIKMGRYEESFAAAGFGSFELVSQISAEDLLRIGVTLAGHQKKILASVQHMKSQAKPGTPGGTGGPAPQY

IGFR-1 [3] = molecular target: T17, IGFR-1; test: Kinase inhibition assay, IGFR-1 (Table 2); settings: Table 2, kinase inhibition class
PDGFRB [4] = molecular target: T16, PDGFRB; test: Kinase inhibition assay (33P transfer), PDGFRB; settings: read-out: PDGFRB-1; remark: listed apart in the source

T1 sequence (P07948 whole entry, species assumed, the tested form may be a part): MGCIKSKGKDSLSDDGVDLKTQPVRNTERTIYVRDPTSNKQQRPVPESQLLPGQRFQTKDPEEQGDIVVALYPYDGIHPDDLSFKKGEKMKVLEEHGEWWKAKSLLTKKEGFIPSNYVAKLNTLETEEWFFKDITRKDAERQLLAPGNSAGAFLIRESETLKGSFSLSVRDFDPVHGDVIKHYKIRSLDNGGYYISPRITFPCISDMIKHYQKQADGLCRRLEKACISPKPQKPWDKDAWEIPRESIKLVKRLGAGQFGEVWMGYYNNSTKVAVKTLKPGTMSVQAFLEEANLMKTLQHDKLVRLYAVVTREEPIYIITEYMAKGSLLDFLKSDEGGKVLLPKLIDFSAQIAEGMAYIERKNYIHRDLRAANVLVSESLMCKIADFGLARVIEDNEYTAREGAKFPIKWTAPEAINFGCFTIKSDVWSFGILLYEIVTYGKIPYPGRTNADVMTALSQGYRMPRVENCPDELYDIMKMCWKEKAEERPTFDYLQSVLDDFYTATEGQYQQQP

IC50 (Lyn) [µM]	IC50 (EGFR) [µM]	IC50 (c-Met) [µM]	IC50 (Flt-1) [µM]	IC50 (FGFR1) [µM]	IC50 (Hck-1) [µM]	IC50 (Fyn) [µM]	IC50 (ErbB4) [µM]	IC50 (Lck; Table 3) [µM]	IC50 (AKT) [µM]	IC50 (Itk; Table 3) [µM]	IC50 (ErbB2) [µM]	IC50 (Tek) [µM]	IC50 (Src) [µM]	IC50 (Kdr; Table 3) [µM]	IC50 (PDGFRB [1]) [µM]	IC50 (IGFR-1 [2]) [µM]	IC50 (Zap-70; Table 3) [µM]	Structure (SMILES)	further results
< 1.02	< 1.02	> 11.4	> 11.4	6.1 to 8.9	> 11.4	1.02 to 6.1	1.02 to 6.1	< 1.02	> 11.4	> 11.4	1.02 to 6.1	> 11.4	1.02 to 6.1	6.1 to 8.9	1.02 to 6.1	1.02 to 6.1	> 11.4	COc1cc(Nc2ncnc(NC3CC3c3ccccc3)n2)cc(OC)c1OC (stereo not drawn) [Compound 428]	–
–	> 12.8	> 12.8	–	–	–	–	–	> 12.8	> 12.8	> 12.8	–	–	–	1.14 to 6.81	–	< 1.14	> 12.8	COc1cc(Nc2ncnc(-c3ccc(C)cc3)n2)cc(OC)c1OC [Compound 221]	IC50 (EPHB4): 1.14 to 6.81 µM
> 9.29	> 9.29	> 9.29	< 0.826	< 0.826	> 9.29	0.826 to 4.95	> 9.29	> 9.29	> 9.29	> 9.29	> 9.29	> 9.29	> 9.29	< 0.826	< 0.826	> 9.29	> 9.29	COc1cc(Nc2ncnc(-n3c(NCc4ccccn4)nc4ccccc43)n2)cc(OC)c1OC [Compound 414]	IC50 (IGFR-1 [3]): 7.22 to 9.29 µM; IC50 (PDGFRB [4]): < 0.826 µM; IC50 (Lck): 0.826 to 4.95 µM; IC50 (Itk): > 9.29 µM; IC50 (Kdr): < 0.826 µM; IC50 (Zap-70): > 9.29 µM
